Assay results taken from patent US11236352B2, “Transgenic plants resistant to non-protein amino acids” (Yeda Research and Development Co. Ltd., priority 2011, dated 2022).

How the values were obtained:
[1] = test system: wild-type Arabidopsis thaliana; assay: m-Tyr resistance: root growth on MS medium with m-Tyr, wild type; assay type: in vivo; conditions: wild type plants, 20 μM m-Tyr in growth media, 7 days
Experimental: (§1) Root growth of Wt (wild type), Cyt (transgenic plant containing cytosol localized bacterial PheRS) and Dual (transgenic plant containing plastids localized bacterial PheRS). Upper panels: samples grown on media containing 20 μM m-Tyrosine. Bottom panels: non-treated samples.
(§2) To assess effects of m-Tyr on Arabidopsis root growth, […] of m-Try was added to MS medium. Arabidopsis seeds were sterilized by shaking in 30% bleach. 0.3% Triton X-100 for 10 min, followed by three rinses with sterile distilled water. Petri dishes with seeds on agar medium were cold-stratified for 72 h at 4° C., and were subsequently placed vertically in green-house at 23° C., under 16:8 h light/dark cycle. After 7 days of growth, the root length of the plant was analyzed.
(§3) The bacterial PheRS genes described in the “Material and Methods” section hereinabove were expressed under the control of the constitutive 35S CaMV promoter. A transit peptide was appended to N-terminus of EcPheRS-α and EcPheRS-β subunits of the bacterial enzyme in order to direct them into the mitochondria and chloroplast of Arabidopsis thaliana. The second constructs pair including PheRS-α and PheRS-β lacked the transit peptides. […] Several independent transgenic lines were obtained, and their resistance to m-Tyr was analyzed. […]

[2] = test system: mtp-PheRS Arabidopsis thaliana lines; assay: m-Tyr resistance: root growth on MS medium with m-Tyr, mtp-PheRS line; assay type: in vivo; conditions: lines containing mtp-PheRS, 20 μM m-Tyr in growth media, 7 days
Experimental: as §1, §2, §3

[3] = test system: cyt-PheRS Arabidopsis thaliana lines; assay: m-Tyr resistance: root growth on MS medium with m-Tyr, cyt-PheRS line; assay type: in vivo; conditions: cyt-PheRS expressing line, 20 μM m-Tyr in growth media, 7 days
Experimental: as §1, §2, §3

Arabidopsis thaliana [4] = conditions: added to an agar medium; read-out: concentration that inhibits root growth by 50%; cited from earlier work
Arabidopsis thaliana [5] = conditions: in vivo; cited from earlier work
HsmtPheRS = target: T1, HsmtPheRS (Homo sapiens, UniProt O95363); conditions: mitochondrial enzyme, no editing domain; cited from earlier work
T1 sequence (O95363 1-451): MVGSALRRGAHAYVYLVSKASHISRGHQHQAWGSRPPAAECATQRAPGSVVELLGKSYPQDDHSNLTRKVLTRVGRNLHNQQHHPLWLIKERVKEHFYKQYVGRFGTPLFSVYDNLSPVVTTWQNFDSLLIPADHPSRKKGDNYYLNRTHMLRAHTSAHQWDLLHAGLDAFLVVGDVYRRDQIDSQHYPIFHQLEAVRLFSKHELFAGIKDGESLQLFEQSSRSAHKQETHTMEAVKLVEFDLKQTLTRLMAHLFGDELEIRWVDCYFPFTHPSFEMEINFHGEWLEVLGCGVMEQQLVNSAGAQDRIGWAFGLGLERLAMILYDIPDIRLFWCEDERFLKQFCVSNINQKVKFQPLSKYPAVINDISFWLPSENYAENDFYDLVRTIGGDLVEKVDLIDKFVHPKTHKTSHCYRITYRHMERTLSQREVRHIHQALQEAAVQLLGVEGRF

bacterial PheRS [6] = target: bacterial PheRS (Thermus thermophilus, UniProt Q5SGX1+Q5SGX2); conditions: FIG. 1; cited from earlier work
Chain of bacterial PheRS (Thermus thermophilus, UniProt Q5SGX1+Q5SGX2) (Q5SGX1 whole entry): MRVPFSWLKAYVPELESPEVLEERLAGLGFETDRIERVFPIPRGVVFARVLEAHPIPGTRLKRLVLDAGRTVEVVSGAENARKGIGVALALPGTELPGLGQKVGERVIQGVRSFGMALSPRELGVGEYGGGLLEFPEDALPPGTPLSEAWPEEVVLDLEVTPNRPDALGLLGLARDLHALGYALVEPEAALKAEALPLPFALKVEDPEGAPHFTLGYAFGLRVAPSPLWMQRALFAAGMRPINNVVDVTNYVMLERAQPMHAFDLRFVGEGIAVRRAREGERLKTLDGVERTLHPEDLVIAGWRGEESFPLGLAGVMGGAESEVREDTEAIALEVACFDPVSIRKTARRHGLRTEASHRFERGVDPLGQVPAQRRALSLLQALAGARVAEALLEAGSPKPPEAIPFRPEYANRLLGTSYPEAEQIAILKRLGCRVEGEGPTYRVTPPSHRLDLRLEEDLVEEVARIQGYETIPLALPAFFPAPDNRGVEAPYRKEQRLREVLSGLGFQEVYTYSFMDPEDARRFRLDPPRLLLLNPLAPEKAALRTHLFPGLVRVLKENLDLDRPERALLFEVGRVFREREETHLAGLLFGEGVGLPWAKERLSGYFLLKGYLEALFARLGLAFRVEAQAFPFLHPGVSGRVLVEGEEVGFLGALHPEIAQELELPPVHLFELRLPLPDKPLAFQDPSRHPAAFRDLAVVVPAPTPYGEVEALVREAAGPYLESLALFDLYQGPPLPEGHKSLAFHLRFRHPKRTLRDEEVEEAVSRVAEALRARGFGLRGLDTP
Chain of bacterial PheRS (Thermus thermophilus, UniProt Q5SGX1+Q5SGX2) (Q5SGX2 whole entry): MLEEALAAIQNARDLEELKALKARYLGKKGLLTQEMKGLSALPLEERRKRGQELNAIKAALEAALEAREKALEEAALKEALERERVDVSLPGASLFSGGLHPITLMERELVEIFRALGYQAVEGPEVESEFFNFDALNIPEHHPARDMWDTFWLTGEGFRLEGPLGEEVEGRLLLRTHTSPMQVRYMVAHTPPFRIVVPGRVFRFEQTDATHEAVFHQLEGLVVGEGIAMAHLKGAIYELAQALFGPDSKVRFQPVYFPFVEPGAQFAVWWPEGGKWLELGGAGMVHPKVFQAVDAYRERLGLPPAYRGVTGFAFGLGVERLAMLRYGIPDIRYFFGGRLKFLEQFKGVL

bacterial PheRS [7] = conditions: incubated with bacterial PheRS; cited from earlier work

Structure (SMILES): N[C@@H](Cc1cccc(O)c1)C(=O)O [m-Tyr, meta-tyrosine]
- root development [1]: didn't develop
- root development [2]: developed up to the half of the length of the non-treated plants
- root development [3]: less developed compared to the line containing mtp-PheRS
- IC50 (Arabidopsis thaliana [4]): 2 µM
- concentration that completely prevents seed germination (Arabidopsis thaliana [5]): 50 µM
- synthesis of m-Tyr-tRNA^Phe (HsmtPheRS): could stably synthesize m-Tyr-tRNA^Phe
- mischarging of tRNA^Phe with m-Tyr (bacterial PheRS [6]): no mischarging
- deacylation of m-Tyr from preloaded m-Tyr-tRNA^Phe (bacterial PheRS [7]): deacylated from the tRNA
